Tests used:
[1] = phase IIa trial, type 2 diabetes, 28-days; cited from earlier work
[2] = molecular target: T1, human full length HSD11 β 1 (Homo sapiens, UniProt P28845); assay: In Vitro HSD11β1 Inhibition Assay; format: cell-based; details: CHO cells transiently expressing human HSD11β1; 200 nM cortisone+500 uM NADPH overnight; cortisone to cortisol by LC/MS-MS; read-out: 11βHSD1 (IC50)
T1 construct: transient expression of human full length HSD11 β 1 expression vector; host or cells: CHO cells (transient transfection)
Summary of the method: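 CHO cells transiently transfected with human full-length HSD11β1 were re-seeded after 24 h and, 24 h later, incubated overnight with 200 nM cortisone plus 500 uM NADPH and inhibitor. Cortisone-to-cortisol conversion was measured by LC/MS-MS. IC50 from an 8-point log concentration–inhibition curve.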

T1 sequence (P28845 whole entry): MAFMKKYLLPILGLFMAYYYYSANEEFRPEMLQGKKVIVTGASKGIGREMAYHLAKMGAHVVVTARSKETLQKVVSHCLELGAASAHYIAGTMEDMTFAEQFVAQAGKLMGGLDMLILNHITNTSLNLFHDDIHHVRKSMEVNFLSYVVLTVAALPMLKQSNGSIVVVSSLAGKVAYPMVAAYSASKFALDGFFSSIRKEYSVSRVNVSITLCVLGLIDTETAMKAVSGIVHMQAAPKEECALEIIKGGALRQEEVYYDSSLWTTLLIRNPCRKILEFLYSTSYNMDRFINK

Row | SMILES | safety and tolerability [1] | IC50 [2]
1 | CNC(=O)c1ccc(-c2ccc(C3(C(=O)N4CC[C@@]5(C4)OC(=O)c4ccccc45)CC3)cc2)cn1 [INCB13739] | safe and well tolerated without any serious side effects and hypoglycemia | –
2 | COn1cc(C(C)CC(=O)N2CCCC3C(C(=O)O)CCCC32)c2c(C3CC3)cccc21 (centres unmarked) [Compound 241, 1-[3-(4-cyclopropyl-1-methoxy-1H-indol-3-yl)butanoyl]decahydroquinoline-5-carboxylic acid] | – | > 250 nM
3 | COc1cccc2[nH]cc(C(C)CC(=O)N3CCCC4C(C(=O)O)CCCC43)c12 (centres unmarked) [Compound 264, 1-[3-(4-methoxy-1H-indol-3-yl)butanoyl]decahydroquinoline-5-carboxylic acid] | – | > 250 nM
4 | CC(CC(=O)N1CCCC2C(C(=O)O)CCCC21)c1c[nH]c2cccc(-c3ccc(F)o3)c12 (single isomer, unassigned) [Compound 249, 1-{3-[4-(5-fluorofuran-2-yl)-1H-indol-3-yl]butanoyl}decahydroquinoline-5-carboxylic acid] | – | 200 to 250 nM
5 | O=C(/C=C/c1c[nH]c2ccccc12)N1CCCC2CCCCC21 (centres unmarked) [Compound 8, (2E)-3-(1H-indol-3-yl)-1-(octahydroquinolin-1(2H)-yl)prop-2-en-1-one] | – | 100 to 150 nM
6 | CC(CC(=O)N1CCCC2C(C(=O)O)CCCC21)c1cn(C)c2cccc(C3CC3)c12 (single isomer, unassigned) [Compound 214, 1-[3-(4-cyclopropyl-1-methyl-1H-indol-3-yl)butanoyl]decahydroquinoline-5-carboxylic acid] | – | < 100 nM
7 | CC(CC(=O)N1CCO[C@H]2CCCCC21)c1c[nH]c2cccc(F)c12 (single isomer, unassigned) [Example 139, 3-(4-fluoro-1H-indol-3-yl)-1-[cis-(4a,8a)-octahydro-4H-1,4-benzoxazin-4-yl]butan-1-one] | – | 100 to 150 nM
8 | CC(CC(=O)N1CCCC2C(C(=O)O)CCCC21)c1c[nH]c2cccc(-c3ccccn3)c12 (centres unmarked) [Compound 238, 1-{3-[4-(pyridin-2-yl)-1H-Indol-3-yl]butanoyl}decahydroquinoline-5-carboxylic acid] | – | > 250 nM
9 | O=C(Cc1c[nH]c2ccc(F)cc12)N1CCCC2CCCCC21 (centres unmarked) [Compound 10, 2-(5-fluoro-1H-indol-3-yl)-1-(octahydroquinolin-1(2H)-yl)ethanone] | – | 100 to 150 nM
10 | CC(CC(=O)N1CCCC2C(C(=O)O)CCCC21)c1c[nH]c2cccc(-c3ccc(F)cc3)c12 (centres unmarked) [Compound 243, 1-{3-[4-(4-fluorophenyl)-1H-indol-3-yl]butanoyl}decahydroquinoline-5-carboxylic acid] | – | < 100 nM
11 | CC(CC(=O)N1CCCC2C(C(=O)O)CCCC21)c1c[nH]c2cccc(C3CC3)c12 (centres unmarked) [Compound 190, 1-[3-(4-cyclopropyl-1H-Indol-3-yl)butanoyl]decahydroquinoline-5-carboxylic acid] | – | < 100 nM
12 | O=C(CCc1c[nH]c2ccc(F)cc12)N1CCCC2CCCCC21 (centres unmarked) [Compound 4, 3-(5-fluoro-1H-indol-3-yl)-1-(octahydroquinolin-1(2H)-yl)propan-1-one] | – | 100 to 150 nM
13 | COc1ccc2[nH]cc(CCC(=O)N3CCCC4CCCCC43)c2c1 (centres unmarked) [Compound 7, 3-(5-methoxy-1 fi-indol-3-yl)-1-(octahydroquinolin-1 (2H)-yl)propan-1-one] | – | > 250 nM
14 | CC(CC(=O)N1CCCC2C(C(=O)O)CCCC21)c1c[nH]c2ccc(F)c(C3CC3)c12 (centres unmarked) [Compound 220, 1-[3-(4-cyclopropyl-5-fluoro-1H-indol-3-yl)butanoyl]decahydroquinoline-5-carboxylic acid] | – | < 100 nM
15 | CC(C)C(CC(=O)N1CCCC2CCCCC21)c1c[nH]c2ccccc12 (single isomer, unassigned) [Example 117, 3-(1H-indol-3-yl)-4-methyl-1-(octahydroquinolin-1(2H)-yl)pentan-1-one] | – | < 100 nM
16 | Cc1[nH]c2ccc(F)cc2c1CCC(=O)N1CCCC2CCCCC21 (centres unmarked) [Compound 16, 3-(5-fluoro-2-methyl-1H-indol-3-yl)-1-(octahydroquinolin-1(2H)-yl)propan-1-one] | – | 150 to 200 nM
17 | CC(C)C(CC(=O)N1CCCC2CCCCC21)c1c[nH]c2ncccc12 (centres unmarked) [Example 164, 4-methyl-1-(octahydroquinolin-1(2H)-yl)-3-(1H-pyrrolo[2,3-b]pyridin-3-yl)pentan-1-one] | – | 100 to 150 nM
18 | Cc1cccc2[nH]cc(CCC(=O)N3CCC(=O)C4CCCCC43)c12 (centres unmarked) [Compound 32, 1-[3-(4-methyl-1H-indol-3-yl)propanoyl]octahydroquinolin-4(1H)-one] | – | > 250 nM
19 | CC(CC(=O)N1CCCC2CCCCC21)c1c[nH]c2ccccc12 (single isomer, unassigned) [Example 119, 3-(1H-indol-3-yl)-1-(octahydroquinolin-1(2H)-yl)butan-1-one] | – | < 100 nM
20 | CC(CC(=O)N1CCC(=O)C2CCCCC21)c1c[nH]c2cccc(Cl)c12 (centres unmarked) [Compound 235, 1-[3-(4-chloro-1H-indol-3-yl)butanoyl]octahydroquinolin-4(1H)-one] | – | < 100 nM
21 | CC(CC(=O)N1CCCC2(CO)CCCCC12)c1c[nH]c2nccc(Cl)c12 (centres unmarked) [Example 147, 3-(4-chloro-1H-pyrrolo[2,3-b]pyridin-3-yl)-1-[4a-(hydroxymethyl)octahydroquinolin-1(2H)-yl]butan-1-one] | – | > 250 nM
22 | CC(C)(c1c[nH]c2ccccc12)C(C#N)C(=O)N1CCCC2CCCCC21 (centres unmarked) [Example 110, 3-(1H-indol-3-yl)-3-methyl-2-(octahydroquinolin-1(2H)-ylcarbonyl)butanenitrile] | – | > 250 nM
23 | CC(CC(=O)N1CCCC2C(C(=O)O)CCCC21)c1c(C#N)n(C)c2cccc(C3CC3)c12 (centres unmarked) [Compound 258, 1-[3-(2-cyano-4-cyclopropyl-1-methyl-1H-indol-3-yl)butanoyl]decahydroquinoline-5-carboxylic acid] | – | > 250 nM
24 | Cc1cccc2c1nnn2C(CC(=O)N1CCCC2CCCCC21)C(C)C (centres unmarked) [Example 172, 4-methyl-3-(4-methyl-1H-benzotriazol-1-yl)-1-(octahydroquinolin-1(2H)-yl)pentan-1-one] | – | > 250 nM
25 | CC(CC(=O)N1CCCC2C(C(=O)O)CCCC21)c1c[nH]c2cccc(-c3cccn3C)c12 (centres unmarked) [Compound 244, 1-{3-[4-(1-methyl-1H-pyrrol-2-yl)-1H-indol-3-yl]butanoyl}decahydroquinoline-5-carboxylic acid] | – | > 250 nM
26 | COC(=O)C1CCN(C(=O)CCc2c[nH]c3ccccc23)C2CCCCC12 (centres unmarked) [Compound 49, methyl 1-[3-(1H-indol-3-yl)propanoyl]decahydroquinoline-4-carboxylate] | – | > 250 nM

From patent publication US9453014B2, “Cyclic amide derivatives as inhibitors of 11-β-hydroxysteroid dehydrogenase and uses thereof” (CONNEXIOS LIFE SCIENCES PVT. LTD., priority 2011, dated 2016)
